One experiment addresses T1, MaDA1 (Morus alba, UniProt A0AAN0NNN7).
T1 construct: N-terminal 6xHis-SUMO tag, Sf9 baculovirus; tag removed by TEV protease for crystallisation; dimer in crystal
T1 sequence (A0AAN0NNN7 24-539 limits assumed): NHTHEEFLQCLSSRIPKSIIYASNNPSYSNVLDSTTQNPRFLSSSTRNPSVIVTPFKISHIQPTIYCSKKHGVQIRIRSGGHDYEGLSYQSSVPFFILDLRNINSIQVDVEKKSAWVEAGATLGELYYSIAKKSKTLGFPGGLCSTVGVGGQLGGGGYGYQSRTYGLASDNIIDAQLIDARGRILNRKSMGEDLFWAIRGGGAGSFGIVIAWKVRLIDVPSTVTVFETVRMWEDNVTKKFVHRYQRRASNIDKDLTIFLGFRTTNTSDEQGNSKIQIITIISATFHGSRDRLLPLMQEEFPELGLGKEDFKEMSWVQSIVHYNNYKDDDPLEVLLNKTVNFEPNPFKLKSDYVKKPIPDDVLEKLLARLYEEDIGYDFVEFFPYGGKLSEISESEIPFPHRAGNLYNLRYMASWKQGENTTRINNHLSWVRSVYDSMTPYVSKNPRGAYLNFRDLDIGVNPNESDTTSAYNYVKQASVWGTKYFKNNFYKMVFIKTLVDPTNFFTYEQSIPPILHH
Briefly: UPLC product assay. To be noted: oxidative cyclisation to moracin D; 20 mM Tris-HCl pH 8.0, 50 °C. The class given is biochemical.

The target of a further experiment is T2, ancDADS.
T2 construct: N-terminal 6xHis-SUMO tag, Sf9 baculovirus
The experiment is described as follows: Lineweaver-Burk, UPLC product quantification. To be noted: competitive against moracin C (20–150 μM); 20 mM Tris-HCl pH 8.0; compound is also an alternative substrate. The class given is biochemical.

Experiment [1] deals with Morus alba Diels-Alderase MaDA1 (Morus alba). Briefly: crystal structure; untagged MaDA1 at about 10 mg/mL, sitting drop vapor diffusion at 18 °C, 0.1 M Bis-Tris pH 5.5, 25% PEG3350.

Consider `CC(C)=CCc1c(O)cc(-c2cc3ccc(O)cc3o2)cc1O` [compound 1, moracin C], for which, on MaDA1, the UPLC product assay entry is “two DAs (MaDA1 and MaDA4) and two DSs (MaDS1 and MaDS6) exhibit functional promiscuity”.
For the compound `CC(C)=CCc1c(O)ccc(C(=O)/C=C/c2ccc(O)cc2O)c1O` [compound 4, morachalcone A], the affinity on ancDADS, expressed as Ki, was 7.34 µM.
In experiment [1], “Morus alba Diels-Alderase MaDA1 (enzyme)” returned a stoichiometry N of 2.
